From US8106037B2, “Identification and treatment of estrogen responsive prostate tumors” (The Brigham and Women's Hospital, Inc., priority 2007, dated 2012)
“Also recorded” adds a separate entry of the source. Where two headings read alike, the source gives them in different places.

Columns and labels:
[1] = tested on: TMPRSS2-ERG fusion transcript; experiment: TMPRSS2-ERG fusion transcript expression (QPCR) in NCI-H660 cells
Description: (§1) Fusion status was determined by ERG break-apart FISH assay (Pemer, et al., Cancer Res. 66:8337-8341 (2006)) and QPCR (for cases not assessable by FISH). An aliquot of the RNA used for DASL was used for QPCR. cDNA was synthesized as above. TMPRSS2-ERG fusion product was determined using SYBR green assay (Qiagen) with TMPRSS2-ERG_f and TMPRSS2-ERG_r primers (Tomlins, et al., Science 310:644-648 (2005)). RPL13A was used for normalization. For estrogen experiments, cDNA was synthesized using the Omniscript RT kit (Qiagen) and HMBS was used for normalization. Relative quantitation was carried out using the comparative Ct method.
(§2) The prostate cancer cell lines NCI-H660 and VCaP were maintained according to ATCC instructions. The cells were hormone-deprived by culture for three days in their respective phenol red-free media (for NCI-H660 without E2 and hydrocortisone) supplemented with 5% CDT-FBS (Invitrogen). Cells were challenged with hormones or vehicle for 12, 24 or 48 hours.
(§3) Reagents were used at a final concentration of 10^−8M.

[2] = tested on: NCI-H660 prostate cancer cell line; experiment: Cell growth assay (Cell Titer-Glo luminescent assay); type: cell-based; conditions: final concentration 10^−8M, relative cell number 2-12 d
Description: The prostate cancer cell lines NCI-[…] and VCaP were maintained according to ATCC instructions. […] NCI-[…] cells were seeded in a 96-well plate ( 5×10^3 cells/well) and stimulated with hormone or vehicle alone. Relative cell number was determined before (time 0 used for normalization) and after stimulation (2, 3, 6, 8, 10, 12 d) using the Cell Titer-Glo luminescent assay (Promega).

[3] = tested on: TMPRSS2-ERG fusion transcript; experiment: TMPRSS2-ERG fusion transcript expression in ERβ-overexpressing VCaP cells
Description: as §1, §2, §3
VCaP cells were transiently transfected with ERβ containing plasmid using Lipofectamine2000 (Invitrogen) for 6 h. Transfection medium was removed after 6 h, cells were washed in PBS twice, and phenol red-free DMEM (Cellgro) supplemented with 5% CDT-FBS (Invitrogen) was added. Cells were challenged with hormones or vehicle 48 hours after transfection. NCI-H660 cells were transiently transfected with smart pool siRNA against ERβ (Dharmacon).

[4] = tested on: TMPRSS2-ERG fusion transcript; experiment: TMPRSS2-ERG fusion transcript expression in non-ERβ-overexpressing VCaP cells
Description: as §1, §2, §3

[5] = ERβ-overexpressing VCaP cells (VCaP-ERβ, ERα negative), final concentration 10^−8M
[6] = NCI-H660 cells, final concentration 10^−8M, 12, 24 or 48 hours

| SMILES | TMPRSS2-ERG expression [1] | growth of NCI-H660 cells [2] | TMPRSS2-ERG fusion transcript expression [3, 5] | TMPRSS2-ERG expression [1, 6] | also measured |
| --- | --- | --- | --- | --- | --- |
| CCCc1c(-c2ccc(O)cc2)nn(-c2ccc(O)cc2)c1-c1ccc(O)cc1 [PPT, propylpyrazole triol] | increased TMPRSS2-ERG expression |  |  |  |  |
| C[C@]12CC[C@@H]3c4ccc(O)cc4CC[C@H]3[C@@H]1CC[C@@H]2O [E2, 17β-estradiol] |  | significantly inhibited | down-regulation of the TMPRSS2-ERG fusion transcript |  | TMPRSS2-ERG fusion transcript expression ([4]; non-ERβ-overexpressing VCaP cells, final concentration 10^−8M): down-regulation was not seen |
| C[C@]12CC[C@@H]3c4ccc(O)cc4C[C@@H](CCCCCCCCC[S+]([O-])CCCC(F)(F)C(F)(F)F)[C@H]3[C@@H]1CC[C@@H]2O (stereo partly drawn) [fulvestrant] |  |  |  | reduced the expression of the fusion transcript |  |
| Oc1ccc(/C=C/c2cc(O)cc(O)c2)cc1 [resveretrol] | reduced the expression of the fusion transcript |  |  |  |  |
| O=C(c1ccc(OCCN2CCCCC2)cc1)c1c(-c2ccc(O)cc2)sc2cc(O)ccc12 [raloxifene] |  |  | remarkable down-regulation of the fusion transcript | up-regulation of TMPRSS2-ERG |  |
| N#CC(Cc1ccc(O)cc1)c1ccc(O)cc1 (stereo not drawn) [DPN, diarylpropionitrile] |  | suppressed growth |  | suppressed expression of the fusion; also recorded: significantly decreased TMPRSS2-ERG expression | TMPRSS2-ERG fusion transcript expression [3]: down-regulation of the TMPRSS2-ERG fusion transcript; TMPRSS2-ERG fusion transcript expression [4]: down-regulation was not seen |
